Tests used:
Assay in all cases: KinomeScan profiling
Assay type in all cases: binding
CDKL1 = CDKL1 (Homo sapiens, UniProt Q00532); conditions: CDKL1, 1 μM; read-out: % control
How it was run: (§1)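 Normalised RLU (% control; DMSO 100%, positive control 0%) was measured for compounds dosed at 1 μM over 468 kinases, active cut-off <35%.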

NEK4 = NEK4 (Homo sapiens, UniProt P51957); conditions: NEK4, 1 μM; read-out: % control
How it was run: as §1

DRAK1 = target: T1, DRAK1 (Homo sapiens, UniProt Q9UEE5); conditions: DRAK1, 1 μM; read-out: % control
T1 sequence (Q9UEE5 1-414): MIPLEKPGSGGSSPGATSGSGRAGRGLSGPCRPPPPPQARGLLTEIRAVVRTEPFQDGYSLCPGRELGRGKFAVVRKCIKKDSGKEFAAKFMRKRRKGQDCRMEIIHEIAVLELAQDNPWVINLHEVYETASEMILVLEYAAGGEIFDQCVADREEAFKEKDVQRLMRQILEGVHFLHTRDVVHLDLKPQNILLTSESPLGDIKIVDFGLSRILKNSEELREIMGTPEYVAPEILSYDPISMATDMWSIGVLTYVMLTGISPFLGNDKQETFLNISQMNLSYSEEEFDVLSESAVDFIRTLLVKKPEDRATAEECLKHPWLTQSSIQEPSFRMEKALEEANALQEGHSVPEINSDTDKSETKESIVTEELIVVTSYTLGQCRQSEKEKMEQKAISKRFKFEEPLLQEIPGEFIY
How it was run: as §1

CDKL5 = target: T2, CDKL5 (Homo sapiens, UniProt O76039); conditions: CDKL5, 1 μM; read-out: % control
T2 sequence (O76039 1-960): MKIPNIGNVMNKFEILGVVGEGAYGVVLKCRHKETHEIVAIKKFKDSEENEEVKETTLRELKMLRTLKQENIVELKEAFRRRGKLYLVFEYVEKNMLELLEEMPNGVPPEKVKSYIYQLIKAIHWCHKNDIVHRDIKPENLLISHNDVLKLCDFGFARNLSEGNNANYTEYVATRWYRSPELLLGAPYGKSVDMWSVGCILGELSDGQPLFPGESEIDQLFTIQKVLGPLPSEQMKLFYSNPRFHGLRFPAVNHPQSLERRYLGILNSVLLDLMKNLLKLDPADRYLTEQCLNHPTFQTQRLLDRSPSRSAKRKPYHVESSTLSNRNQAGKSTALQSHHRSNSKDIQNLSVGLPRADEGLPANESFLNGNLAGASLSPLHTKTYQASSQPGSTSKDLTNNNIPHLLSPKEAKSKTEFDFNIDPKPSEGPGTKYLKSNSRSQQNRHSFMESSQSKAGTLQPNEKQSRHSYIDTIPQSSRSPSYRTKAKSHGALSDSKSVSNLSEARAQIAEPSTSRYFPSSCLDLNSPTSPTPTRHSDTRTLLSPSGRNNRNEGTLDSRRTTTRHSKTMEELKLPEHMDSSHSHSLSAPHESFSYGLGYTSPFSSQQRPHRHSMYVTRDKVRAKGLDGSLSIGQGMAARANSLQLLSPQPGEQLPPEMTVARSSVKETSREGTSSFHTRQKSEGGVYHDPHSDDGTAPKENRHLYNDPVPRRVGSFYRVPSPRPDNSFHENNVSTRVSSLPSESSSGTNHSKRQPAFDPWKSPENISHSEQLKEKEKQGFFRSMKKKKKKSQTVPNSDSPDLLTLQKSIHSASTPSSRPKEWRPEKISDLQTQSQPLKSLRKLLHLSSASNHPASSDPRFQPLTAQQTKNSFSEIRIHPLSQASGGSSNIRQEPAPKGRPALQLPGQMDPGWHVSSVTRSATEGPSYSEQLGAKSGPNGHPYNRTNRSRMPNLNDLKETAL
How it was run: as §1

[1] = target: T3, ABL1(M351T)-phosphorylated (Homo sapiens, UniProt P00519, M351T); conditions: read-out: % control
T3 construct: purchased KinomeScan®
How it was run: as §1

DYRK1B = DYRK1B (Homo sapiens, UniProt Q9Y463); conditions: read-out: % control
How it was run: as §1

MUSK = target: T4, MUSK (Homo sapiens, UniProt O15146); conditions: read-out: % control
T4 sequence (O15146 24-869): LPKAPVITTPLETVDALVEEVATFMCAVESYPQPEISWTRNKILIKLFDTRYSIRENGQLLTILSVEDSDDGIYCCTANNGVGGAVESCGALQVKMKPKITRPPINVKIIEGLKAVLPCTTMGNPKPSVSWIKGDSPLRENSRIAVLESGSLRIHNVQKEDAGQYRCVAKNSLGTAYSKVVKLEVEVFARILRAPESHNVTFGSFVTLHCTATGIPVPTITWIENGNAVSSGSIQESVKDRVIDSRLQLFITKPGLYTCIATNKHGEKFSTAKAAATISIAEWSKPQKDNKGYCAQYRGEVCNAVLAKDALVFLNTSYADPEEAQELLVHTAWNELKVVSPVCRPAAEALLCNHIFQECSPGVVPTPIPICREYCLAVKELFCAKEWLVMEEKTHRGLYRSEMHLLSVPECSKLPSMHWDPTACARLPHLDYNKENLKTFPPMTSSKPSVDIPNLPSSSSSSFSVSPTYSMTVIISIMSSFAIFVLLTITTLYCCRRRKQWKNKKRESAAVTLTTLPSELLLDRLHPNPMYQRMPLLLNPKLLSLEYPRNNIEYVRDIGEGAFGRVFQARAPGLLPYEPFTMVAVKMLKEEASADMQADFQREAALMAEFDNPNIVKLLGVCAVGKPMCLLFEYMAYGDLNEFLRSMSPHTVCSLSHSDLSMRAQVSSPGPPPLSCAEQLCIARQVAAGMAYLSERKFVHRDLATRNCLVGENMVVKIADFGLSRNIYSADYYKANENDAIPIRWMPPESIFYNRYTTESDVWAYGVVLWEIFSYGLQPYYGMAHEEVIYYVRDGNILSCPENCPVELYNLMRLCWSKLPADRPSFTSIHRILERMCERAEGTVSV
How it was run: as §1

EGFR = EGFR (Homo sapiens, UniProt P00533); conditions: read-out: % control
How it was run: as §1

Sequence of DYRK1B (Q9Y463 whole entry): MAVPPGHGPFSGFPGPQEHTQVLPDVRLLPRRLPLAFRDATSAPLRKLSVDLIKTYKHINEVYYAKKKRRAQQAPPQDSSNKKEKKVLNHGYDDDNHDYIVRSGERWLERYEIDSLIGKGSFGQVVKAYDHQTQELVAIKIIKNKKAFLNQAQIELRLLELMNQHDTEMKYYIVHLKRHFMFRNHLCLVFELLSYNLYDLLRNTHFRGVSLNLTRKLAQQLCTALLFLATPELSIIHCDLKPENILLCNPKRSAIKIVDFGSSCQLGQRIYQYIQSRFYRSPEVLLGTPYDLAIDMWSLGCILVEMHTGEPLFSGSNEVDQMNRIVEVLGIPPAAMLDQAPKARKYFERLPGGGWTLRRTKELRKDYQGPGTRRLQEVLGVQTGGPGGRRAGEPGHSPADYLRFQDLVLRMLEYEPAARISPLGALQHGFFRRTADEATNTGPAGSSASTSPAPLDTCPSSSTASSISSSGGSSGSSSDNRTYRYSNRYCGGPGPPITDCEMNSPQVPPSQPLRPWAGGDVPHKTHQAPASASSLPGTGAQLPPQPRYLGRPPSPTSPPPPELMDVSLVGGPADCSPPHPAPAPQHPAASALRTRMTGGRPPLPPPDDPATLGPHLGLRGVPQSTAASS
Sequence of EGFR (P00533 25-1210): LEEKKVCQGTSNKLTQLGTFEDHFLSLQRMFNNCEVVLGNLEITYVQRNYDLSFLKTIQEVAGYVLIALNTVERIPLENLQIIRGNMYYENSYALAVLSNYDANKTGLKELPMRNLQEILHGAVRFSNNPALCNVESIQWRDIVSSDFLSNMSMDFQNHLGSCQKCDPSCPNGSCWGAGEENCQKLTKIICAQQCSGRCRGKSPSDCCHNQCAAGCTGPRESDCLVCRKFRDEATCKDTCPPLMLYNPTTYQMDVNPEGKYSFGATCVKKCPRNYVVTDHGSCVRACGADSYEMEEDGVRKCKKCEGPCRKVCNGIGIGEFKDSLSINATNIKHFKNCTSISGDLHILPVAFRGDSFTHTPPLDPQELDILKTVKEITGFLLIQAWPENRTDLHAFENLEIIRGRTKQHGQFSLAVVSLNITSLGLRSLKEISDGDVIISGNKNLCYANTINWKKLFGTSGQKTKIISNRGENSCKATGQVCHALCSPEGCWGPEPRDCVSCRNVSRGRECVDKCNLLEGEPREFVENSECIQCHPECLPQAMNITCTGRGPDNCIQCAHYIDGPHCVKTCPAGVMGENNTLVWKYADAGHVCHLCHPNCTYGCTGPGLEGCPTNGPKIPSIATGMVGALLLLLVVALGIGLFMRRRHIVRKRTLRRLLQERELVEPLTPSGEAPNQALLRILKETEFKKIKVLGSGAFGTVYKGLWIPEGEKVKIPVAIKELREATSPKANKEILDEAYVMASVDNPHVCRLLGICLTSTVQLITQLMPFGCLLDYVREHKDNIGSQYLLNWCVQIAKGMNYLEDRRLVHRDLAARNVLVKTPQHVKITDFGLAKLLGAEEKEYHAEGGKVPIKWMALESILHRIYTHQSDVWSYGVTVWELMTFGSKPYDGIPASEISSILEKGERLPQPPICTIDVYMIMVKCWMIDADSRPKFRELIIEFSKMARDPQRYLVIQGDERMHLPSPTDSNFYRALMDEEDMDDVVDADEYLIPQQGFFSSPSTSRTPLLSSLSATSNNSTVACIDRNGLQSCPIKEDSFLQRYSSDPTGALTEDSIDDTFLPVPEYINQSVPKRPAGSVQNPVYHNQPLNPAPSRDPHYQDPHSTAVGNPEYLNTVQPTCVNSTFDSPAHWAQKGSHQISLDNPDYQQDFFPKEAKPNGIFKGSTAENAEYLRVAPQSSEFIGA
Sequence of CDKL1 (Q00532 whole entry): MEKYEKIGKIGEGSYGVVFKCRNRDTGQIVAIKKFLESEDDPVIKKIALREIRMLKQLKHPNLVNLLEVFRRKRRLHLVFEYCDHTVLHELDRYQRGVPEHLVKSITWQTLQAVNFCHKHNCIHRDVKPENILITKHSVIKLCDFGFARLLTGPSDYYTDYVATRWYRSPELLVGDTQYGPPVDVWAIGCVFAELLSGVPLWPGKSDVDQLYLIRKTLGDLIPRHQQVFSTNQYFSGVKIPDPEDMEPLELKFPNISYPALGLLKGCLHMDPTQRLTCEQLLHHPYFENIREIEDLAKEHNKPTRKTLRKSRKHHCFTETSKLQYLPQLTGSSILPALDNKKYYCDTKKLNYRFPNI
Sequence of NEK4 (P51957 whole entry): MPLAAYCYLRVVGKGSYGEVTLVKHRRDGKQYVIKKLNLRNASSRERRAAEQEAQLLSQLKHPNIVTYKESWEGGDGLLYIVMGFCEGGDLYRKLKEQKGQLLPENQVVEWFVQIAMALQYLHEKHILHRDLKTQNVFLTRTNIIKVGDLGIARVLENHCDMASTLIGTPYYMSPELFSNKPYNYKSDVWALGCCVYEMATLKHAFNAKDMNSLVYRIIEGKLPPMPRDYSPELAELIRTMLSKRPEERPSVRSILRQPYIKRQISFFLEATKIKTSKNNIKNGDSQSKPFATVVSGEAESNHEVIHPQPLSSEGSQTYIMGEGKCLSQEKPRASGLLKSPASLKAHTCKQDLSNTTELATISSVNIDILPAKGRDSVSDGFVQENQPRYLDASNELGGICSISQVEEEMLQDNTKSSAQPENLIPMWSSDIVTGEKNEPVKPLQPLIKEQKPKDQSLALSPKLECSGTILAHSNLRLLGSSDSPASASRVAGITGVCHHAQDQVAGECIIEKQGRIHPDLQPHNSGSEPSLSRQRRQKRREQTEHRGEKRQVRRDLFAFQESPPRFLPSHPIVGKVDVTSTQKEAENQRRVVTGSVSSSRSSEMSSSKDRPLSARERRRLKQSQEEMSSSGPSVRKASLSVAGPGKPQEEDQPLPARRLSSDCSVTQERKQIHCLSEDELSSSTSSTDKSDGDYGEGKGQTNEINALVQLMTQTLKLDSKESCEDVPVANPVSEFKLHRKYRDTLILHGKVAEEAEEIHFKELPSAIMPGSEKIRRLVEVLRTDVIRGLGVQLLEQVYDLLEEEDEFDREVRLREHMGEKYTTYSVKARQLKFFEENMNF

CNc1c(-c2cnn([C@H]3CCN(C(C)=O)C[C@@H]3F)c2)cnc2[nH]cc(Cl)c12 [Compound 77, 1-((3S,4S)-4-(4-(3-chloro-4-(methylamino)-1H-pyrrolo[2,3-b]pyridin-5-yl)-1H-pyrazol-1-yl)-3-fluoropiperidin-1-yl)ethan-1-one] gave a remaining binding at 1 µM (CDKL1) of 76%, a remaining binding at 1 µM (NEK4) of 82% and a remaining binding at 1 µM (DRAK1) of 81%. The remaining binding at 1 µM (CDKL5) was 94%, the remaining binding at 1 µM [1] was 75% and the remaining binding at 1 µM (DYRK1B) was 100%. The remaining binding at 1 µM (MUSK) was 100% and the remaining binding at 1 µM (EGFR) was 95%.
CNc1c(-c2ccc(C(=O)N3CCC(N4CCOCC4)CC3)cc2)cnc2[nH]cc(Cl)c12 [Compound 96, (4-(3-chloro-4-(methylamino)-1H-pyrrolo[2,3-b]pyridin-5-yl)phenyl)(4-morpholinopiperidin-1-yl)methanone] showed a remaining binding at 1 µM (CDKL1) of 78%, a remaining binding at 1 µM (NEK4) of 65% and a remaining binding at 1 µM (DRAK1) of 56%. The remaining binding at 1 µM (CDKL5) was 92%, the remaining binding at 1 µM [1] was 71% and the remaining binding at 1 µM (DYRK1B) was 100%. For the same molecule, the remaining binding at 1 µM (MUSK) was 100% and the remaining binding at 1 µM (EGFR) was 100%.
O=C(c1ccc(-c2cnc3[nH]cc(Cl)c3c2NC2CCCC2)cc1)N1CCC(N2CCOCC2)CC1 [Compound 101, (4-(3-chloro-4-(cyclopentylamino)-1H-pyrrolo[2,3-b]pyridin-5-yl)phenyl)(4-morpholinopiperidin-1-yl)methanone] gave a remaining binding at 1 µM (CDKL1) of 100%, a remaining binding at 1 µM (NEK4) of 100% and a remaining binding at 1 µM (DRAK1) of 100%. The remaining binding at 1 µM (CDKL5) was 70%, the remaining binding at 1 µM [1] was 93% and the remaining binding at 1 µM (DYRK1B) was 89%. For the same molecule, the remaining binding at 1 µM (MUSK) was 67% and the remaining binding at 1 µM (EGFR) was 97%.

Source: patent US12275731B2, “Azaindole inhibitors of wild-type and mutant forms of LRRK2” (DANA-FARBER CANCER INSTITUTE, INC., priority 2018, dated 2025)
